How the values were obtained:
[1] = system: cytopathic effect of HIV: LAV-1-infected CEM cells / Molt4 (clone 8) cells; experiment: Inhibitory effect on the cytopathic effect of HIV (syncytium/giant cell formation); assay type: cell-based, human immunodeficiency virus (LAV-1)
Description: The inhibitory effect of the compound (I) on the cytopathic effect (syncytium formation) by HIV infection on T lymphocytes was evaluated in the following manner.
(1) CEM cells infected with LAV-1 were washed twice with RPMI 1640 medium and a cell suspension (1 × 10^6 cells/ml) was prepared using the same medium. The suspension was distributed in 100-μl portions into culture tubes (16 × 125 mm). Complete medium^*1 containing the compound (I) in several specified concentrations was added to the culture tubes and incubation was performed in the presence of 5% carbon dioxide a 37° C. for 3 days.
The LAV-1-infected CEM cells thus cultured were washed twice with RPMI 1640 medium and then adjusted to 4 × 10^5 cells/ml with the complete medium.
[*1: RPMI 1640 medium supplemented with 20% fetal calf serum, 2.5 mM glutamine, kanamycin (100 μg/ml) and penicillin G (100 units/ml)]
(2) Molt4 (clone 8) cells were washed twice with RPMI 1640 medium and then adjusted to 2 × 10^6 cells/ml with the complete medium.
(3) The LAV-1-infected CEM cell suspension in complete medium prepared in (1) and the Molt4 (clone 8) cell suspension in complete medium prepared in (2) were respectively distributed in 50-μl portions into 96 well flat bottomed tissue culture plate, followed by further addition of 50 μl of each solution of the compound (I) in complete medium to each well, which was, in advance, prepared to give a final concentration of compound (I) of 100 μg/ml, 50 μg/ml, 20 μg/ml or 10 μg/ml (the final volume in each well being 150 μl).
(4) The above tissue culture plate was incubated at 37° C. in the presence of 5% carbon dioxide for 16 hours and then the giant cells resulting from cytopathic alteration of Molt4 (clone 8) cells were counted within the visual field of a microscope (magnification × 400).
The compound (II) was also evaluated for the same inhibitory effect (the α isomer, i.e. the compound (II'), was selected as a representative of the compound (II)).

[2] = system: Type II collagen-induced arthritis; experiment: Type II collagen-induced arthritis in rats; assay type: in vivo, rat (female Lewis); settings: oral, means ± SEM
Description: (2R, 3S, 4R, 5R)-3,4-dihydroxy-5-hydroxymethyl-2-pyrrolidinesufonic acid (compound (II'))
Inbred 7-week-old female Lewis rats were handled under specific pathogen-free conditions and acclimated to the new environment for a week before use.
Type II bovine collagen was dissolved at 4° C. in 0.01M acetic acid at a concentration of 2 mg/ml. The solution was emulsified in an equal volume of incomplete Freund's adjuvant. Rats were anesthetized with sodium pentobarbital (30 mg/kg, i.p.) and the backs of rats were shaved. Under anesthesia, each rat was immunized with 0.8 ml of the cold emulsion by several intradermal injections on the depilated back and one or two injections into the base of the tail.
The test compound was dissolved in distilled water and administered orally at various doses in 5 ml/kg. From the day of immunization, the test compound or vehicle was administered once a day for 2 weeks.
The extent of arthritis was expressed as the increase in paw volume of each rat. The volume of both hind legs below the knee joint was measured with a plethysmometer. The rats were immunized on day 0 and the paw volume was measured on day 12 and 14. Mean increases in the paw volume of each group was calculated and the result was expressed as means ± SEM. Each group consisted of 10 rats.

Friend leukemia virus [3] = experiment: Inhibitory effect on the induction of splenomegaly by Friend leukemia virus in mice; assay type: in vivo, mouse (male C3H/HeN); settings: for Spleen weight / Inhibition: day 14; for Inhibition: percent inhibition of infection from spleen weight; for inhibition of splenomegaly in mice (in words): Friend leukemia virus
Description: Male C3H/HeN mice (5 weeks old) were intraperitoneally inoculated with 3.1 × 10^1 MID50 /mouse of Friend leukemia virus (in 0.2 ml) and then, after this infection procedure, the active ingredient [compound (I) or compound (II)] of the present invention was administered at a specified dose in the form of a solution in sterile physiological saline by the route specified below (Experiment 1 or 2). On day 14 after infection, the mice were sacrificed by exsanguination and the spleen weight (in mg) was measured for evaluating the inhibitory effect of the compound (I) and (II) on the induction of splenomegaly. In each experiment, the control group consisted of mice given no active ingredient after infection with Friend leukemia virus. The percent inhibition of infection was calculated as follows: [formula] The compound (I) was intravenously administered 4 hours after infection (day 0) and then twice daily on days 1 to 4 and days 7 to 11 (19 times in total). The compound (II) was orally administered 1 hour after infection and then according to the same schedule as in Experiment 1. The compound (II) used was in the α form, namely the compound (II'). Friend leukemia virus used in the above test is known to be a lymphotropic retrovirous, like HIV. Since the extent of splenomegaly in mice induced by said virus is proportional to the proliferation of said virus, the inhibitory effect of an agent on the proliferation of Friend leukemia virus can be estimated by assaying its inhibitory effect on the splenomegaly in mice.

α-glucosidase = settings: stated without data; cited from earlier work
[4] = Acute toxicity testing in mice; assay type: in vivo, mouse (ddY, female)
Description: The compound (I) was administered to mice (ddY strain, female, 5 weeks old) at a dose of 1 g per kg body weight by intravenous injection.

[5] = system: immunosuppressive factors; settings: stated without data; cited from earlier work
Friend leukemia virus [6] = experiment: Inhibitory effect on the induction of splenomegaly by Friend leukemia virus in mice; assay type: in vivo, mouse (male C3H/HeN); settings: combination with azidothymidine (AZT); no data given
inflammation = experiment: Anti-inflammatory activity (general statement); settings: stated in words
[7] = Stability and hygroscopicity; assay type: physicochemical; settings: compared with the pyrroline compound (I)

With `O=S(=O)(O)[C@H]1N[C@H](CO)[C@@H](O)[C@@H]1O` [Compound (II'), (2R, 3S, 4R, 5R)-3,4-dihydroxy-5-hydroxymethyl-2-pyrrolidinesulfonic acid] the “Number of giant cells” value ([1]; compound (II') 1 μg/ml, control (0 μg/ml) 173.0 ± 2.0, mean ± SD) was 119.5 ± 16.5, the “Number of giant cells” value ([1]; compound (II') 3 μg/ml, control (0 μg/ml) 173.0 ± 2.0, mean ± SD) was 106.0 ± 19 and the “Number of giant cells” value ([1]; compound (II') 10 μg/ml, control (0 μg/ml) 173.0 ± 2.0, mean ± SD) was 89.0 ± 10. For the same compound, the “Number of giant cells” value ([1]; compound (II') 30 μg/ml, control (0 μg/ml) 173.0 ± 2.0, mean ± SD) was 53.5 ± 8.5, the “Number of giant cells” value ([1]; compound (II') 100 μg/ml, control (0 μg/ml) 173.0 ± 2.0, mean ± SD) was 26.5 ± 3.5 and the “Paw volume change” value ([2]; 10 mg/kg once a day, 12 day, control 0.29 ± 0.13, normal 0.03 ± 0.07) was 0.16 ± 0.15 mL. For the same compound, the “Paw volume change” value ([2]; 10 mg/kg once a day, 14 day, control 0.41 ± 0.24, normal 0.05 ± 0.03) was 0.27 ± 0.21 mL, the “Paw volume change” value ([2]; 32 mg/kg once a day, 12 day, control 0.29 ± 0.13, normal 0.03 ± 0.07) was 0.13 ± 0.10 mL and the “Paw volume change” value ([2]; 32 mg/kg once a day, 14 day, control 0.41 ± 0.24, normal 0.05 ± 0.03) was 0.19 ± 0.22 mL. The “Paw volume change” value ([2]; 100 mg/kg once a day, 12 day, control 0.29 ± 0.13, normal 0.03 ± 0.07) was 0.08 ± 0.11 mL, the “Paw volume change” value ([2]; 100 mg/kg once a day, 14 day, control 0.41 ± 0.24, normal 0.05 ± 0.03) was 0.06 ± 0.04 mL and the Spleen weight (Friend leukemia virus [3]; oral, 10 mg/kg/administration, first 1 hour after infection, control 1073 ± 26, normal 79 ± 2 mg, mean of 8 mice) was 875 ± 71 mg. It also gave an Inhibition (Friend leukemia virus [3]; oral, 10 mg/kg/administration, first 1 hour after infection) of 20%.

In the case of `OC[C@H]1N=C[C@@H](O)[C@@H]1O` [Compound (I), (3R, 4R, 5R)-3,4-dihydroxy-5-hydroxymethyl-1-pyrroline], the α-glucosidase inhibiting activity (α-glucosidase) is given as “α-glucosidase inhibiting activity”, the “Number of giant cells” value ([1]; compound (I) 10 μg/ml, 16 h, control (0 μg/ml) 260.5, mean of two countings) is given as 246.5 and the “Number of giant cells” value ([1]; compound (I) 20 μg/ml, 16 h, control (0 μg/ml) 260.5, mean of two countings) is given as 147.5. For the same compound, the “Number of giant cells” value ([1]; compound (I) 50 μg/ml, 16 h, control (0 μg/ml) 260.5, mean of two countings) was 44.5, the “Number of giant cells” value ([1]; compound (I) 100 μg/ml, 16 h, control (0 μg/ml) 260.5, mean of two countings) was 9.5 and the body weight ([4]; 1 g per kg body weight, intravenous injection) was “body weight gains”. The survival ([4]; mouse, in vivo, iv) was “The mice survived”, the “activity against immunosuppressive factors” value [5] was “activity against immunosuppressive factors” and the “potentiation of azidothymidine (AZT) in inhibiting splenomegaly in mice” value (Friend leukemia virus [6]) was “can potentiate azidothymidine (AZT) in inhibiting such splenomegaly in mice”. For the same compound, the “inhibition of splenomegaly in mice (in words)” value (Friend leukemia virus [3]) was “can inhibit such splenomegally in mice”, the Spleen weight (Friend leukemia virus [3]; intravenous, 20 mg/kg/administration, 19 times, control 1149 ± 220, normal 92 ± 3 mg, mean of 10 mice) was 840 ± 421 mg and the Inhibition (Friend leukemia virus [3]; intravenous, 20 mg/kg/administration, 19 times) was 29%. For the same compound, the Spleen weight (Friend leukemia virus [3]; intravenous, 80 mg/kg/administration, 19 times, control 1149 ± 220, normal 92 ± 3 mg, mean of 10 mice) was 667 ± 241 mg and the Inhibition (Friend leukemia virus [3]; intravenous, 80 mg/kg/administration, 19 times) was 46%.

For `O=S(=O)(O)C1N[C@H](CO)[C@@H](O)[C@@H]1O` (some centres unmarked) [(II)], the “potentiation of azidothymidine (AZT) in inhibiting splenomegaly in mice” value (Friend leukemia virus [6]) was “can potentiate azidothymidine (AZT) in inhibiting such splenomegaly in mice”, the “inhibition of splenomegaly in mice (in words)” value (Friend leukemia virus [3]) was “can inhibit such splenomegally in mice” and the anti-inflammatory activity (inflammation) was “has anti-inflammatory activity”. For the same compound, the hygroscopicity [7] was “less hygroscopic than the pyrroline compound (I)” and the stability [7] was “very stable”.

From US5098927A, “Antiretroviral agent, method of use thereas, and method of preparation” (Fujisawa Pharmaceutical Co., Ltd., priority 1989, dated 1992)
